According to ChEMBL document CHEMBL4385653, “Design, synthesis, biological evaluation of benzoyl amide derivatives containing nitrogen heterocyclic ring as potential VEGFR-2 inhibitors” (Bioorg Med Chem, 2019):
pIC50: −log10 of the molar value. One block for each molecule: values may come before it.

Columns and labels:
[1] = tested on: HepG2; experiment: Antiproliferative activity against human HepG2 cells assessed as inhibition of cell proliferation incubated for 48 hrs by MTT assay; type: functional, cell-based; conditions: HepG2, 48 h
[2] = target: Fibroblast growth factor receptor 1 (Homo sapiens, UniProt P11362); experiment: Inhibition of bFGFR (unknown origin) incubated for 30 mins by enzyme immunoassay
[3] = Inhibition of PDGFR (unknown origin) incubated for 30 mins by enzyme immunoassay; set-up: species or system Homo sapiens
[4] = tested on: MCF7; experiment: Antiproliferative activity against human MCF7 cells assessed as inhibition of cell proliferation incubated for 48 hrs by MTT assay; type: functional, cell-based; conditions: MCF7, 48 h
[5] = tested on: A549; experiment: Antiproliferative activity against human A549 cells assessed as inhibition of cell proliferation incubated for 48 hrs by MTT assay; type: functional, cell-based; conditions: A549, 48 h
[6] = tested on: HeLa; experiment: Antiproliferative activity against human HeLa cells assessed as inhibition of cell proliferation incubated for 48 hrs by MTT assay; type: functional, cell-based
[7] = target: Epidermal growth factor receptor (Homo sapiens, UniProt P00533); experiment: Inhibition of EGFR (unknown origin) incubated for 30 mins by enzyme immunoassay
[8] = target: Vascular endothelial growth factor receptor 2 (Homo sapiens, UniProt P35968); experiment: Inhibition of VEGFR2 (unknown origin) incubated for 30 mins by enzyme immunoassay
[9] = Cytotoxicity in HEK293T cells assessed as reduction in cell viability incubated for 48 hrs by MTT assay; type: cell-based, HEK-293T; conditions: human
[10] = tested on: MCF7; experiment: Induction of apoptosis in human MCF7 cells incubated for 24 hrs by Annexin V-FITC/PI double staining based flow cytometry analysis; type: functional, cell-based
[11] = tested on: MCF7; experiment: Induction of apoptosis in human MCF7 cells assessed as early apoptotic cells level at 4 uM incubated for 12 hrs by Annexin V-FITC/PI double staining based flow cytometry analysis (reference value: 1.06%); type: functional
[12] = tested on: MCF7; experiment: Induction of apoptosis in human MCF7 cells assessed as late apoptotic cells level at 2 uM incubated for 24 hrs by Annexin V-FITC/PI double staining based flow cytometry analysis (reference value: 10.1%); type: functional
[13] = tested on: MCF7; experiment: Induction of apoptosis in human MCF7 cells assessed as early apoptotic cells level at 4 uM incubated for 24 hrs by Annexin V-FITC/PI double staining based flow cytometry analysis (reference value: 6.37%); type: functional
[14] = tested on: MCF7; experiment: Induction of apoptosis in human MCF7 cells assessed as early apoptotic cells level at 4 uM incubated for 36 hrs by Annexin V-FITC/PI double staining based flow cytometry analysis (reference value: 1.06%); type: functional
[15] = tested on: MCF7; experiment: Induction of apoptosis in human MCF7 cells assessed as viable cells level at 2 uM incubated for 24 hrs by Annexin V-FITC/PI double staining based flow cytometry analysis (reference value: 82%); type: functional
[16] = tested on: MCF7; experiment: Induction of apoptosis in human MCF7 cells assessed as late apoptotic cells level at 4 uM incubated for 36 hrs by Annexin V-FITC/PI double staining based flow cytometry analysis (reference value: 3.1%); type: functional
[17] = tested on: MCF7; experiment: Induction of apoptosis in human MCF7 cells assessed as late necrotic cells level at 8 uM incubated for 24 hrs by Annexin V-FITC/PI double staining based flow cytometry analysis (reference value: 1.49%); type: functional
[18] = tested on: MCF7; experiment: Induction of apoptosis in human MCF7 cells assessed as viable cells level at 4 uM incubated for 24 hrs by Annexin V-FITC/PI double staining based flow cytometry analysis (reference value: 82%); type: functional
[19] = tested on: MCF7; experiment: Induction of apoptosis in human MCF7 cells assessed as late necrotic cells level at 2 uM incubated for 24 hrs by Annexin V-FITC/PI double staining based flow cytometry analysis (reference value: 1.49%); type: functional
[20] = tested on: MCF7; experiment: Induction of apoptosis in human MCF7 cells assessed as viable cells level at 4 uM incubated for 12 hrs by Annexin V-FITC/PI double staining based flow cytometry analysis (reference value: 89%); type: functional
[21] = tested on: MCF7; experiment: Induction of apoptosis in human MCF7 cells assessed as viable cells level at 8 uM incubated for 24 hrs by Annexin V-FITC/PI double staining based flow cytometry analysis (reference value: 82%); type: functional
[22] = tested on: MCF7; experiment: Induction of apoptosis in human MCF7 cells assessed as viable cells level at 4 uM incubated for 24 hrs by Annexin V-FITC/PI double staining based flow cytometry analysis (reference value: 89%); type: functional
[23] = tested on: MCF7; experiment: Induction of apoptosis in human MCF7 cells assessed as early apoptotic cells level at 8 uM incubated for 24 hrs by Annexin V-FITC/PI double staining based flow cytometry analysis (reference value: 6.37%); type: functional
[24] = tested on: MCF7; experiment: Induction of apoptosis in human MCF7 cells assessed as late necrotic cells level at 4 uM incubated for 24 hrs by Annexin V-FITC/PI double staining based flow cytometry analysis (reference value: 6.88%); type: functional
[25] = tested on: MCF7; experiment: Induction of apoptosis in human MCF7 cells assessed as late necrotic cells level at 4 uM incubated for 24 hrs by Annexin V-FITC/PI double staining based flow cytometry analysis (reference value: 1.49%); type: functional
[26] = tested on: MCF7; experiment: Induction of apoptosis in human MCF7 cells assessed as late apoptotic cells level at 4 uM incubated for 12 hrs by Annexin V-FITC/PI double staining based flow cytometry analysis (reference value: 3.1%); type: functional
[27] = tested on: MCF7; experiment: Induction of apoptosis in human MCF7 cells assessed as late apoptotic cells level at 8 uM incubated for 24 hrs by Annexin V-FITC/PI double staining based flow cytometry analysis (reference value: 10.1%); type: functional
[28] = tested on: MCF7; experiment: Induction of apoptosis in human MCF7 cells assessed as late apoptotic cells level at 4 uM incubated for 24 hrs by Annexin V-FITC/PI double staining based flow cytometry analysis (reference value: 10.1%); type: functional
[29] = tested on: MCF7; experiment: Induction of apoptosis in human MCF7 cells assessed as late necrotic cells level at 4 uM incubated for 12 hrs by Annexin V-FITC/PI double staining based flow cytometry analysis (reference value: 6.88%); type: functional
[30] = tested on: MCF7; experiment: Induction of apoptosis in human MCF7 cells assessed as early apoptotic cells level at 2 uM incubated for 24 hrs by Annexin V-FITC/PI double staining based flow cytometry analysis (reference value: 6.37%); type: functional
[31] = tested on: MCF7; experiment: Induction of apoptosis in human MCF7 cells assessed as early apoptotic cells level at 4 uM incubated for 24 hrs by Annexin V-FITC/PI double staining based flow cytometry analysis (reference value: 1.06%); type: functional
[32] = tested on: MCF7; experiment: Induction of apoptosis in human MCF7 cells assessed as late apoptotic cells level at 4 uM incubated for 24 hrs by Annexin V-FITC/PI double staining based flow cytometry analysis (reference value: 3.1%); type: functional
[33] = tested on: MCF7; experiment: Induction of apoptosis in human MCF7 cells assessed as late necrotic cells level at 4 uM incubated for 36 hrs by Annexin V-FITC/PI double staining based flow cytometry analysis (reference value: 6.88%); type: functional
[34] = tested on: MCF7; experiment: Induction of apoptosis in human MCF7 cells assessed as viable cells level at 4 uM incubated for 36 hrs by Annexin V-FITC/PI double staining based flow cytometry analysis (reference value: 89%); type: functional

Chain of Fibroblast growth factor receptor 1 (P11362 whole entry): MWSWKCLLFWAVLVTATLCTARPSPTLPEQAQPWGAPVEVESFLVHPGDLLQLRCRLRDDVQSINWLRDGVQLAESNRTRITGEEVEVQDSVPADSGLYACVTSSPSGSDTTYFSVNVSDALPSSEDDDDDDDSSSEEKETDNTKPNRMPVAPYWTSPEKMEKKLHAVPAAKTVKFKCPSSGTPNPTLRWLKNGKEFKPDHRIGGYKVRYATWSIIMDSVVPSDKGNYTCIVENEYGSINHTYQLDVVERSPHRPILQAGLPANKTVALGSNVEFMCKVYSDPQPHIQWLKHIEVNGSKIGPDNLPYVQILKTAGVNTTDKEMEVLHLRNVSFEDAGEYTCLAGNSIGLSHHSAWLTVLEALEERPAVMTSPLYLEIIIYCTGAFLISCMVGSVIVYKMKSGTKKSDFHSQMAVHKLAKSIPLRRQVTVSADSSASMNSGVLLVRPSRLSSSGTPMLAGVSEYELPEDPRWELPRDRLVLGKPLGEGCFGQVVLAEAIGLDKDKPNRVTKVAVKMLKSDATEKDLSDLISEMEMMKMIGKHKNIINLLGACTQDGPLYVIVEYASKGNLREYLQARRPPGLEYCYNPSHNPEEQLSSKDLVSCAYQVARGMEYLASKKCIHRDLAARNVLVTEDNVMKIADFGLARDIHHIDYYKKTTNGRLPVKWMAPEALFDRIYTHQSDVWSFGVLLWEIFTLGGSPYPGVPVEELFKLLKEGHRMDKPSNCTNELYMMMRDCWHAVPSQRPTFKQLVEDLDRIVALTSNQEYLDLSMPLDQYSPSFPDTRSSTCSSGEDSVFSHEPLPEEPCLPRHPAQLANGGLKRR
Chain of Vascular endothelial growth factor receptor 2 (P35968 whole entry): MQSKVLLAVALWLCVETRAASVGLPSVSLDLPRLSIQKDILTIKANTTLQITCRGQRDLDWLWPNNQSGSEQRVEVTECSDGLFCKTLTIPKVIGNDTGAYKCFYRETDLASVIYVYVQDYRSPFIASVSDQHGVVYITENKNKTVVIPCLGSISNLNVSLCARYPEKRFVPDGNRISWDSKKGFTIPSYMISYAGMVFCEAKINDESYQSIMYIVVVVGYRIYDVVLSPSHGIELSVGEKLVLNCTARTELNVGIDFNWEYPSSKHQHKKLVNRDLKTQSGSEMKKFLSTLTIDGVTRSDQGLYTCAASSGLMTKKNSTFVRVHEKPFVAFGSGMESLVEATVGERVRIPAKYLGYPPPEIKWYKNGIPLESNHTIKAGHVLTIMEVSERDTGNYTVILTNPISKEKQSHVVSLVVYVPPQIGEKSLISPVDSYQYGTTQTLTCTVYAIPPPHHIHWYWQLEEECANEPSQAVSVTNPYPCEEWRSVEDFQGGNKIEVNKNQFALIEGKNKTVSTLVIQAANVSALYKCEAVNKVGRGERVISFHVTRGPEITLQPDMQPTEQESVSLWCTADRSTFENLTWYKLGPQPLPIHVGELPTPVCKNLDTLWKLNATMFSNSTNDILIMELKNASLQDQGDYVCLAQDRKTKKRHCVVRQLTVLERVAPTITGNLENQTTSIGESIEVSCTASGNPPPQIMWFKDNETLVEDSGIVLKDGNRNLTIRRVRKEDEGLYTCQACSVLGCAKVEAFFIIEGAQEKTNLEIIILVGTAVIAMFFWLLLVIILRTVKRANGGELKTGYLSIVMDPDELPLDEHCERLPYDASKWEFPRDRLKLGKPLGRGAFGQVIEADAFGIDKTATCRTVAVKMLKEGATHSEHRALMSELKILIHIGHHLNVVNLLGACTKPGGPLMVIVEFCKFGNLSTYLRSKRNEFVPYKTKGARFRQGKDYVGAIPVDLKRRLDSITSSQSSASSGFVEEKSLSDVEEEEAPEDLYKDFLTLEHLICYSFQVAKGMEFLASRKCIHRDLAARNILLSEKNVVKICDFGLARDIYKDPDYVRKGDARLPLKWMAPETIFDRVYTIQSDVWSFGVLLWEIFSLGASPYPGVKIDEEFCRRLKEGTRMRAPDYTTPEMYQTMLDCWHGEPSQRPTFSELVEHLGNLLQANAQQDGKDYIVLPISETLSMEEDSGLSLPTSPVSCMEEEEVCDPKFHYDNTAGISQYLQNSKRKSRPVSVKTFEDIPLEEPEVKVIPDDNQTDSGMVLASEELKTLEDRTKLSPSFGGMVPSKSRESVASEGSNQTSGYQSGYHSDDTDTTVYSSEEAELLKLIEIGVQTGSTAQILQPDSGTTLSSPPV
Chain of Epidermal growth factor receptor (P00533 whole entry): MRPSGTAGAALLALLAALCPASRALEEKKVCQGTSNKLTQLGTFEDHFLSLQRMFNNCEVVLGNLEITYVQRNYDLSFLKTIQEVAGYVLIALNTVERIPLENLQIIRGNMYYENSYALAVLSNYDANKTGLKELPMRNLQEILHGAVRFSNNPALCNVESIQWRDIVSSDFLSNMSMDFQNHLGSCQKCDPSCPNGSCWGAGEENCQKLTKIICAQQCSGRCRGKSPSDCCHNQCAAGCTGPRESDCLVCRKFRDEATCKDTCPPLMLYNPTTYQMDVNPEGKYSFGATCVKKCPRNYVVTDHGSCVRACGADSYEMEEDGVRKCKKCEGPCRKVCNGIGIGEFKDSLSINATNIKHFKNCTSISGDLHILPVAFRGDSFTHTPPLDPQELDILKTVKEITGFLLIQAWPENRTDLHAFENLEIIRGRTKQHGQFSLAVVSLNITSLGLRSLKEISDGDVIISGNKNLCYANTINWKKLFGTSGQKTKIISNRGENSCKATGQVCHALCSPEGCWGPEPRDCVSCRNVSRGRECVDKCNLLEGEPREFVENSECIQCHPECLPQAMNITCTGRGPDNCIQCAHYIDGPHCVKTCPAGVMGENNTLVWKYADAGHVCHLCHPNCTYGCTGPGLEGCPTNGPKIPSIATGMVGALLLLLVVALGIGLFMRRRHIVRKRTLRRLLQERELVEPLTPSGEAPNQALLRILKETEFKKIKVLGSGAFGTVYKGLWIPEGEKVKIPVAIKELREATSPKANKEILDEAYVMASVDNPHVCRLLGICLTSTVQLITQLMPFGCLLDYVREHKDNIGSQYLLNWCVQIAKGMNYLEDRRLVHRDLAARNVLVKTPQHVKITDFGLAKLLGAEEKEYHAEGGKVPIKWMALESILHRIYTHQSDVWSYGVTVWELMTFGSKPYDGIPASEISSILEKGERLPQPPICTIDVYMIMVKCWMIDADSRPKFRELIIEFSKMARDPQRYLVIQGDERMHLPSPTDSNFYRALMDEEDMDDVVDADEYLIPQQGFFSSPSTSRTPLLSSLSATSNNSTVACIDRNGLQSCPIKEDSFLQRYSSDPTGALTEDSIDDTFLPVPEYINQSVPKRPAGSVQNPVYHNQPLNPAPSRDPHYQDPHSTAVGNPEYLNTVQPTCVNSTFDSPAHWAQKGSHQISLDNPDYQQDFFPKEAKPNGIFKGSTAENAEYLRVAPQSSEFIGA

pIC50 [1]: 4.45 | pIC50 [2]: 4.43 | pIC50 [3]: 4.42 | pIC50 [4]: 4.73 | pIC50 [5]: 4.11 | pIC50 [6]: 4.37 | pIC50 [7]: 4.57 | pIC50 [8]: 4.98
Compound: COc1ccc(-n2cc(NC(=O)c3cccc(NS(=O)(=O)c4ccccc4)c3)cn2)cc1

pIC50 [1]: 5.07 | pIC50 [2]: 4.73 | pIC50 [3]: 4.75 | pIC50 [4]: 5.50 | pIC50 [5]: 4.71 | pIC50 [6]: 5.27 | pIC50 [7]: 4.98 | pIC50 [8]: 5.62
Compound: O=C(Nc1cnn(-c2ccccc2)c1)c1cccc(NS(=O)(=O)c2ccc(Cl)cc2)c1
CC50 at 48 h [9]: 120 µM

pIC50 [1]: 4.60 | pIC50 [2]: 4.48 | pIC50 [3]: 4.56 | pIC50 [4]: 4.78 | pIC50 [5]: 4.09 | pIC50 [6]: 4.58 | pIC50 [7]: 4.64 | pIC50 [8]: 5.04
Compound: COc1cccc(-n2cc(NC(=O)c3cccc(NS(=O)(=O)c4ccccc4)c3)cn2)c1

pIC50 [1]: 4.07 | pIC50 [2]: 4.24 | pIC50 [3]: 4.38 | pIC50 [4]: 4.39 | pIC50 [5]: < 4.00 | pIC50 [6]: 4.11 | pIC50 [7]: 4.46 | pIC50 [8]: 4.69
Compound: Cn1cc(NC(=O)c2cccc(NS(=O)(=O)c3ccccc3)c2)cn1

pIC50 [1]: < 4.00 | pIC50 [2]: 4.21 | pIC50 [3]: 4.37 | pIC50 [4]: 4.23 | pIC50 [5]: < 4.00 | pIC50 [6]: 4.03 | pIC50 [7]: 4.43 | pIC50 [8]: 4.60
Compound: Cn1cc(NC(=O)c2ccc(NS(=O)(=O)c3ccccc3)cc2)cn1

The remaining lines, values behind:

Compound: Cc1ccc(-n2cc(NC(=O)c3ccc(NS(=O)(=O)c4ccc(Cl)cc4)cc3)cn2)cc1
pIC50 [1]: 5.01 | pIC50 [2]: 4.79 | pIC50 [3]: 4.80 | pIC50 [4]: 5.40 | pIC50 [5]: 4.66 | CC50 at 48 h [9]: 138 µM | pIC50 [6]: 5.10 | pIC50 [7]: 4.90 | pIC50 [8]: 5.54

Compound: COc1cc2/c(=N/c3ccc(Br)cc3F)nc[nH]c2cc1OCC1CCN(C)CC1 [VANDETANIB]
Activity [10]: Dose-dependent effect | pIC50 [1]: 5.61 | pIC50 [3]: 5.88 | pIC50 [4]: 5.85 | pIC50 [5]: 4.74 | pIC50 [6]: 5.18

Compound: O=C(Nc1cnn(-c2ccccc2)c1)c1ccc(NS(=O)(=O)c2ccc(Cl)cc2)cc1
pIC50 [1]: 4.82 | pIC50 [2]: 4.67 | pIC50 [3]: 4.71 | pIC50 [4]: 5.28 | pIC50 [5]: 4.47 | CC50 at 48 h [9]: 125 µM | pIC50 [6]: 4.73 | pIC50 [8]: 5.43

Compound: O=C(Nc1cnn(-c2ccccc2)c1)c1ccc(NS(=O)(=O)c2ccccc2)cc1
pIC50 [1]: 4.67 | pIC50 [2]: 4.45 | pIC50 [3]: 4.46 | pIC50 [4]: 4.77 | pIC50 [5]: 4.06 | pIC50 [6]: 4.43 | pIC50 [7]: 4.59 | pIC50 [8]: 4.99

Compound: CCCS(=O)(=O)Nc1ccc(F)c(C(=O)c2c[nH]c3ncc(-c4ccc(Cl)cc4)cc23)c1F [VEMURAFENIB]
Activity [11]: 14.2% | Activity [12]: 14.9% | Activity [13]: 8.13% | Activity [14]: 34.7% | Activity [15]: 74.6% | Activity [16]: 13.7% | Activity [17]: 2.02% | Activity [18]: 66.7% | Activity [19]: 2.29% | Activity [20]: 70.7% | Activity [21]: 57.2% | Activity [22]: 66.4% | Activity [23]: 14.4% | Activity [24]: 1.81% | Activity [25]: 3.53% | Activity [26]: 13.9% | Activity [27]: 26.3% | Activity [28]: 21.7% | Activity [29]: 1.24% | Activity [30]: 8.28% | Activity [31]: 15.1% | Activity [32]: 16.7% | Activity [33]: 0.853% | Activity [34]: 50.7%
